Earlier results as cited in patent publication US8673945B2, “Solid pharmaceutical composition comprising amlodipine and losartan” (Hanmi Science Co., Ltd, priority 2009, dated 2014).

CCCCc1nc(Cl)c(CO)n1Cc1ccc(-c2ccccc2-c2nn[nH]n2)cc1 [losartan, 2-butyl-4-chloro-1-[[2′-(1H-tetrazol-5-yl)[1,1′-biphenyl]-4-yl]methyl]-1H-imidazol-5-methanol]
reduction of Cmax of losartan after food ingestion: about 10%
